Experimental data: patent publication US11453647B2, “Benzimidazole derivatives as adenosine receptor antagonists” (Merck Patent GmbH, priority 2017, dated 2022)

Tests used:
[1] = target: T1, A2B receptors (Homo sapiens, UniProt P29275); conditions: antagonists; cited from earlier work
T1 sequence (P29275 1-332): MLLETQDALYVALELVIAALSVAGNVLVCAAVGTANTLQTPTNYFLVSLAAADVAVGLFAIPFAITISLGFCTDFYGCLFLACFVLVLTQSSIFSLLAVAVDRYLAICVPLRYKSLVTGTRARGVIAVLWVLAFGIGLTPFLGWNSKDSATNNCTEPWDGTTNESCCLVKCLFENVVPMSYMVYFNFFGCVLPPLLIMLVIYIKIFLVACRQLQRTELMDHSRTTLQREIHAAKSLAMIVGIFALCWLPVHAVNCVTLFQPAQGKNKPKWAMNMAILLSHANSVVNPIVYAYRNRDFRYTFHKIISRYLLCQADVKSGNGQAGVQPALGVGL

[2] = system: mouse Pan T cells; test: mouse Pan T cell IFN-γ rescue from A2A agonist CGS-21680 (ELISA, 48 h); format: cell-based; conditions: for IC50: Mus musculus, T-cell
Description: (§1) Adenosine (Ado) in tumor microenvironment can inhibit T cell activity by signaling through A2A receptors and suppress cytokine secretion by T cells. […] Potential A2A antagonists or A2A/A2B dual antagonists can rescue T cells from this inhibition. Herein, we describe the in vitro system we established using Pan T cells from mouse spleens to screen potential A2A antagonists or A2A/A2B dual antagonists for their activity. The method described involves the use of CD3/CD28 pre-coated beads to stimulate Pan T cells purified from mouse splenocytes, combined with the addition of A2A agonist along with potential A2A or A2A/A2B dual antagonists to evaluate potentiation of T cell cytokine production.
(§2) Briefly, mouse Pan T cells are purified from spleens of BALB/c mice using Pan T cell isolation kit Mouse II (MACS Miltenyi biotech Cat # Order no. 130-095-130) according to manufacturer's protocol. The purified T cells are seeded in Nunc™ 96-Well Polystyrene Round Bottom Microwell Plates in RPMI medium with 10% heat inactivated fetal bovine serum. The cells are rested at 37° C. for 1 h before activating with CD3/CD28 pre-coated beads (Dynabeads™ Mouse T-Activator CD3/CD28; Cat #11456D). After 30 min the cells are treated with varying doses of test antagonist(s). […] After 24 h incubation IL-2 levels in the supernatants and after 48 h incubation IFN-γ levels in the supernatants are measured by ELISAs according to manufacturer's protocol (R&D systems Cat # DY402 (IL-2); DY485 (IFN-γ)). Once the concentrations are calculated, the difference of cytokine concentration of DMSO control and agonist alone control is calculated (called A) and the percentage of rescue by each concentration of antagonist is calculated by using Microsoft Excel. These percentages of cytokine rescue in a dose dependent manner of antagonist is plotted in GraphPad Prism software and IC50 is calculated.

[3] = target: T2, human A2A receptor (Homo sapiens, UniProt P29274); test: functional cAMP (HTRF) assay, recombinant HEK293 cells expressing human A2A receptor, agonist NECA; format: cell-based
T2 construct: expressed in transfected cells; host or cells: HEK293
T2 sequence (P29274 whole entry): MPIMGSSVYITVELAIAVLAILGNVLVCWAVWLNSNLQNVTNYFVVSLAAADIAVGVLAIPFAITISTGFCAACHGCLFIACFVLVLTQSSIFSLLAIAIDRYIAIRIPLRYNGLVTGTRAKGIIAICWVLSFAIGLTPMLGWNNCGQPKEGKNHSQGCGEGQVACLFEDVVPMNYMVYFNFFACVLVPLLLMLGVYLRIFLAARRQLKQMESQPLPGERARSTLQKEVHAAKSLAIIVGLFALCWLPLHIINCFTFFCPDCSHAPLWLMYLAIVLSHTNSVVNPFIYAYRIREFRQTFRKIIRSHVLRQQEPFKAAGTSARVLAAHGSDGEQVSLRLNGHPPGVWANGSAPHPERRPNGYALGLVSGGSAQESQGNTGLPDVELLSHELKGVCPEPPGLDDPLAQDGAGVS

[4] = target: T1, A2B receptors; test: functional cAMP (HTRF) assay, recombinant HEK293 cells expressing human A2B receptor, agonist NECA; format: cell-based; set-up: expressed in transfected cells; host or cells: HEK293
[5] = target: T3, human A1 receptor (Homo sapiens, UniProt P30542); test: functional cAMP (HTRF) assay, recombinant CHO cells expressing human A1 receptor, forskolin, agonist CPA; format: cell-based
T3 construct: expressed in transfected cells; host or cells: CHO
T3 sequence (P30542 1-326): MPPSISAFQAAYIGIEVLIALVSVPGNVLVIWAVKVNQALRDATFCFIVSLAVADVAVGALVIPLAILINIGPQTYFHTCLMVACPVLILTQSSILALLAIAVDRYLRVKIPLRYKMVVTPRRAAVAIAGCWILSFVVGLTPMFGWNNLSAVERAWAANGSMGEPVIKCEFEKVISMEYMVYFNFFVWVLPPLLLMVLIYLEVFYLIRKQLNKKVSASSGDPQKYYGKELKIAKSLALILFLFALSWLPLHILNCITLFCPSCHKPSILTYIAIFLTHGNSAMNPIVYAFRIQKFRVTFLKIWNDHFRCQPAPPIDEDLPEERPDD
How it was run: (§3)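 Recombinant CHO cells expressing A1 or A3 receptor (Gi-coupled) were stimulated with forskolin together with test compound and agonist (CPA for A1, IB-MECA for A3), incubated 30 min, then cellular cAMP was read by HTRF. Data were normalized to inhibitor control and DMSO neutral control, then curve-fitted.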

[6] = pharmacokinetic properties in mouse after single intravenous and oral administration; format: in vivo; conditions: PK data in mouse; for Feces iv: @0.2 (dose, unit not given); for clearance / half-life / Cmax / Vd: female, plasma, 0.2 mg/kg; for Cmax: dose-normalized to 1 mg/kg; for Vd: read-out: Vss
Description: The objective of the study was to obtain information on the pharmacokinetic properties of the compounds of the present invention in female Wistar rats/mice following single intravenous and oral administration.
Female Wistar rats/mice (n=6) received either a single intravenous (bolus) injection or an oral administration (by gavage) of the tested compound.
The concentrations of the compounds in plasma, feces were quantified using an UPLC method with tandem mass spectrometric detection (LC-MS/MS) previously developed at the ‘Institute of Drug Metabolism and Pharmacokinetics’. The LC-MS/MS system consisted of a Waters Acquity UPLC coupled to an AB Sciex mass spectrometer API 5500 Q-trap. […] The detection of the compounds was performed using multiple reaction monitoring in the positive ionization mode. Plasma samples were spiked with internal standard (20 μl) and the analyte was extracted from the matrix using tertiary-butyl methyl ether (tBME). The organic phase was evaporated to dryness under a stream of nitrogen. The residue was dissolved in acetonitrile/0.1% formic acid for LC-MS/MS analysis. Feces samples were homogenized with 4-times their volume of an ethanol/water mixture (4:1, v/v). Aliquots of the aqueous-ethanolic extracts were spiked with internal standard, diluted with acetonitrile/water (1:1, v/v) and directly injected into the LC-MS/MS system.
Pharmacokinetic parameters Cmax and tmax were taken from the observed data. […] AUC values were calculated by non-compartmental analysis using the linear up/log down method. Numerical data for mean plasma concentrations and derived pharmacokinetic parameters were rounded to 3 significant digits for presentation.

[7] = target: T4, human A3 receptor (Homo sapiens, UniProt P0DMS8); test: functional cAMP (HTRF) assay, recombinant CHO cells expressing human A3 receptor, forskolin, agonist IB-MECA; format: cell-based
T4 construct: expressed in transfected cells; host or cells: CHO
T4 sequence (P0DMS8 1-318): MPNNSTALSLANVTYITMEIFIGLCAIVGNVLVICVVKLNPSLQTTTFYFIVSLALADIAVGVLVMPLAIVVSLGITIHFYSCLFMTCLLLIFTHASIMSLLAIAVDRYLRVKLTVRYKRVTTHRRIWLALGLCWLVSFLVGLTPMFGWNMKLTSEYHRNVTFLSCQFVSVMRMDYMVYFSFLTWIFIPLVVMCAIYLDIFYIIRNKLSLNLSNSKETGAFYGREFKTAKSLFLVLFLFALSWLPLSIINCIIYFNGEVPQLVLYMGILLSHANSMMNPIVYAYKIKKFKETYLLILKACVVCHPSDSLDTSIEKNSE
How it was run: as §3

[8] = system: mouse Pan T cells; test: mouse Pan T cell IL-2 rescue from A2A agonist CGS-21680 (ELISA, 24 h); format: cell-based; conditions: for IC50: Mus musculus, T-cell
Description: as §1, §2

[9] = IC50 of cytokine rescue, CGS-21680 1 μM, CD3/CD28 beads

IC50 [2]	IC50 [3]	IC50 [4]	IC50 [5]	Feces iv [6]	clearance [6]	half-life [6]	Cmax [6]	Vd [6]	IC50 [7]	IC50 [8]	Structure (SMILES)	affinities on A2B receptors [1]	Mouse IFN-γ [2, 9]	Mouse T-Cell IL-2 [8, 9]
–	–	–	–	–	–	–	–	–	–	–	CCCn1c(=O)c2[nH]c(-c3ccc(S(=O)(=O)O)cc3)nc2n(CCC)c1=O [DPSPX, 1,3-dipropyl-8-sulphophenylxanthine]	mid to high nM range	–	–
500 nM	< 10 nM	< 1000 nM	> 1000 nM	26@0.2%	31.7 mL/min/kg	33.4 min	892 ng/mL	1.17 L/kg	> 1000 nM	1000 nM	C#CCC1(O)CCN(C(=O)Nc2nc3c(-c4cnn(C)c4)ccc(OC)c3[nH]2)CC1 [compound 92, 4-hydroxy-N-[7-methoxy-4-(1-methyl-1H-pyrazol-4-yl)-1H-1,3-benzodiazol-2-yl]-4-(prop-2-yn-1-yl)piperidine-1-carboxamide]	–	–	–
80 nM	< 10 nM	< 1000 nM	> 1000 nM	12.5@0.2%	22.5 mL/min/kg	32.9 min	888 ng/mL	1.05 L/kg	> 1000 nM	100 nM	COc1ccc(-c2cnn(C)c2)c2nc(NC(=O)c3ccc(CN4CCCC4=O)cc3)[nH]c12 [compound 100, N-[7-methoxy-4-(1-methyl-1H-pyrazol-4-yl)-1H-1,3-benzodiazol-2-yl]-4-[(2-oxopyrrolidin-1-yl)methyl]benzamide]	–	–	–
75 nM	< 10 nM	< 100 nM	> 1000 nM	–	–	–	–	–	> 1000 nM	44 nM	CCNCc1ccc(C(=O)Nc2nc3c(-c4ccccc4)ccc(OC)c3[nH]2)cc1 [compound 11, 4-Ethylaminomethyl-N-(7-methoxy-4-phenyl-1H-benzoimidazol-2-yl)-benzamide]	–	–	–
40 nM	< 10 nM	< 100 nM	> 1000 nM	–	–	–	–	–	< 1000 nM	40 nM	COc1ccc(-c2cnn(C)c2)c2nc(NC(=O)c3ccc(Cn4ccnc4)cc3)[nH]c12 [compound 71, 4-[(1H-imidazol-1-yl)methyl]-N-[7-methoxy-4-(1-methyl-1H-pyrazol-4-yl)-1H-1,3-benzodiazol-2-yl]benzamide]	–	–	–
350 nM	< 10 nM	< 100 nM	> 1000 nM	42@0.2%	6.77 mL/min/kg	46.1 min	3160 ng/mL	0.357 L/kg	> 1000 nM	111 nM	COc1ccc(-c2cnn(C)c2)c2nc(NC(=O)c3ccc(C(=O)N(C)C)cc3)[nH]c12 [compound 93, N4-[7-methoxy-4-(1-methyl-1H-pyrazol-4-yl)-1H-1,3-benzodiazol-2-yl]-N1,N1-dimethylbenzene-1,4-dicarboxamide]	–	–	–
–	–	–	–	23@0.2%	–	–	–	–	–	–	COc1ccc(N2CCOCC2)c2sc(NC(=O)N3CCC(C)(O)CC3)nc12 [Tozadenant, reference compound]	–	NA (<50% rescue)	NA (<50% rescue)
–	–	–	–	–	–	–	–	–	–	–	CCCn1c(=O)[nH]c(=O)c2[nH]cnc21 [enprofylline, 3-n-propylxanthine]	mid to high nM range	–	–
220 nM	–	–	–	–	–	–	–	–	–	120 nM	COc1ccc(-c2cnn(C)c2)c2nc(NC(=O)N3CCC(C)(CO)CC3)[nH]c12 [compound 35, 4-Hydroxymethyl-4-methyl-piperidine-1-carboxylic acid [7-methoxy-4-(1-methyl-1H-pyrazol-4-yl)-1H-benzoimidazol-2-yl]-amide]	–	–	–
1000 nM	< 10 nM	< 1000 nM	> 1000 nM	–	–	–	–	–	< 1000 nM	–	COc1ccc(-c2cnn(C)c2)c2nc(NC(=O)c3ccc(OC(F)(F)F)cc3)[nH]c12 [compound 94, N-[7-methoxy-4-(1-methyl-1H-pyrazol-4-yl)-1H-1,3-benzodiazol-2-yl]-4-(trifluoromethoxy)benzamide]	–	–	–
–	–	–	–	–	–	–	–	–	–	–	O=c1[nH]c(=O)c2nc3ccccc3nc2[nH]1 [alloxazine, 2,4-dioxobenzopteridine]	mid to high nM range	–	–
–	< 10 nM	< 10 nM	< 1000 nM	–	–	–	–	–	< 100 nM	1110 nM	COc1ccc(-c2ccccc2)c2nc(NC(=O)c3ccc(Cn4ccnc4)cc3)[nH]c12 [compound 15, 4-Imidazol-1-ylmethyl-N-(7-methoxy-4-phenyl-1H-benzoimidazol-2-yl)-benzamide]	–	–	–

Structure (SMILES)	IC50 [2]	IC50 [3]	IC50 [4]	IC50 [5]	Feces iv [6]	clearance [6]	half-life [6]	Cmax [6]	Vd [6]	IC50 [7]	IC50 [8]	affinities on A2B receptors [1]	Mouse IFN-γ [2, 9]	Mouse T-Cell IL-2 [8, 9]
COc1ccc(-c2cnn(C)c2)c2nc(NC(=O)N3CC[C@@]4(CCCOC4)C3)[nH]c12 [compound 114, (5S)-N-[7-methoxy-4-(1-methyl-1H-pyrazol-4-yl)-1H-1,3-benzodiazol-2-yl]-7-oxa-2-azaspiro[4.5]decane-2-carboxamide]	900 nM	< 10 nM	> 1000 nM	> 1000 nM	9@0.2%	9.43 mL/min/kg	66.6 min	1440 ng/mL	0.842 L/kg	> 1000 nM	900 nM	–	–	–
